Numbers after ± are expanded uncertainties.

One data set in a line: xn = mol fraction of the nth substance listed. As to conditions: 308.15 K; 100 kPa; Liquid; Capillary tube (Ostwald / Ubbelohde) method; x2 = 0.
Consider `CCCO` [propan-1-ol] + CC[S+](CC)CC.O=S(=O)([N-]S(=O)(=O)C(F)(F)F)C(F)(F)F, for which the viscosity (commonly the internal friction of a fluid under shear) stood at 1.506 ± 0.12 mPa·s.
On to `CCCO` [propan-1-ol] + O=S(=O)([N-]S(=O)(=O)C(F)(F)F)C(F)(F)F.On1cc[n+](O)c1, for which the viscosity stood at 1.506 ± 0.12 mPa·s.

The same data set, now with this note: 308.15 K; 100 kPa; Liquid; Frequency=3 MHz; Single path-length method; x2 = 0.
Regarding `CCCO` [propan-1-ol] + C=CCn1cc[n+](C)c1.O=S(=O)([N-]S(=O)(=O)C(F)(F)F)C(F)(F)F, the speed of sound (usually the propagation velocity of pressure waves in the medium) was 1172.4 ± 6 m/s.
On the same count and under the same terms, for `CCCO` [propan-1-ol] + CC[S+](CC)CC.O=S(=O)([N-]S(=O)(=O)C(F)(F)F)C(F)(F)F the value was 1172.4 ± 6 m/s; for `CCCO` [propan-1-ol] + O=S(=O)([N-]S(=O)(=O)C(F)(F)F)C(F)(F)F.On1cc[n+](O)c1, 1172.4 ± 6 m/s.

Still in this data set, the particulars now being: 308.15 K; 100 kPa; Liquid; Vibrating tube method; x2 = 0.
For `CCCO` [propan-1-ol] + C=CCn1cc[n+](C)c1.O=S(=O)([N-]S(=O)(=O)C(F)(F)F)C(F)(F)F, the mass density (usually the mass of a sample divided by its volume) came out at 792 ± 2 kg/m3.
Still for that read-out and setting: for `CCCO` [propan-1-ol] + CC[S+](CC)CC.O=S(=O)([N-]S(=O)(=O)C(F)(F)F)C(F)(F)F the value was 792 ± 2 kg/m3; for `CCCO` [propan-1-ol] + O=S(=O)([N-]S(=O)(=O)C(F)(F)F)C(F)(F)F.On1cc[n+](O)c1, 792 ± 2 kg/m3.

Still in this data set, the particulars now being: 313.15 K; 100 kPa; Liquid; Capillary tube (Ostwald / Ubbelohde) method; x2 = 0.
As for `CCCO` [propan-1-ol] + C=CCn1cc[n+](C)c1.O=S(=O)([N-]S(=O)(=O)C(F)(F)F)C(F)(F)F, the viscosity worked out at 1.348 ± 0.11 mPa·s.
Still for that read-out and setting: for `CCCO` [propan-1-ol] + CC[S+](CC)CC.O=S(=O)([N-]S(=O)(=O)C(F)(F)F)C(F)(F)F the value was 1.348 ± 0.11 mPa·s.
As for `CCCO` [propan-1-ol] + O=S(=O)([N-]S(=O)(=O)C(F)(F)F)C(F)(F)F.On1cc[n+](O)c1, the viscosity is on record as 1.348 ± 0.11 mPa·s.

Still in this data set, the particulars now being: 313.15 K; 100 kPa; Liquid; Frequency=3 MHz; Single path-length method; x2 = 0.
As for `CCCO` [propan-1-ol] + C=CCn1cc[n+](C)c1.O=S(=O)([N-]S(=O)(=O)C(F)(F)F)C(F)(F)F, the speed of sound is on record as 1155.5 ± 6 m/s.
On the same count and under the same terms, for `CCCO` [propan-1-ol] + CC[S+](CC)CC.O=S(=O)([N-]S(=O)(=O)C(F)(F)F)C(F)(F)F the value was 1155.5 ± 6 m/s; for `CCCO` [propan-1-ol] + O=S(=O)([N-]S(=O)(=O)C(F)(F)F)C(F)(F)F.On1cc[n+](O)c1, 1155.5 ± 6 m/s.

Staying with this data set, now noted: 313.15 K; 100 kPa; Liquid; Vibrating tube method; x2 = 0.
Regarding `CCCO` [propan-1-ol] + C=CCn1cc[n+](C)c1.O=S(=O)([N-]S(=O)(=O)C(F)(F)F)C(F)(F)F, the mass density was 787 ± 2 kg/m3.
For `CCCO` [propan-1-ol] + CC[S+](CC)CC.O=S(=O)([N-]S(=O)(=O)C(F)(F)F)C(F)(F)F, the mass density was found to be 787 ± 2 kg/m3.
Still for that read-out and setting: for `CCCO` [propan-1-ol] + O=S(=O)([N-]S(=O)(=O)C(F)(F)F)C(F)(F)F.On1cc[n+](O)c1 the value was 787 ± 2 kg/m3.

Still in this data set, the particulars now being: 318.15 K; 100 kPa; Liquid; Capillary tube (Ostwald / Ubbelohde) method; x2 = 0.
Turning to `CCCO` [propan-1-ol] + C=CCn1cc[n+](C)c1.O=S(=O)([N-]S(=O)(=O)C(F)(F)F)C(F)(F)F, the viscosity amounted to 1.211 ± 0.097 mPa·s.
As for `CCCO` [propan-1-ol] + CC[S+](CC)CC.O=S(=O)([N-]S(=O)(=O)C(F)(F)F)C(F)(F)F, the viscosity is recorded as 1.211 ± 0.097 mPa·s.
On the same count and under the same terms, for `CCCO` [propan-1-ol] + O=S(=O)([N-]S(=O)(=O)C(F)(F)F)C(F)(F)F.On1cc[n+](O)c1 the value was 1.211 ± 0.097 mPa·s.

Staying with this data set, now noted: 318.15 K; 100 kPa; Liquid; Frequency=3 MHz; Single path-length method; x2 = 0.
`CCCO` [propan-1-ol] + C=CCn1cc[n+](C)c1.O=S(=O)([N-]S(=O)(=O)C(F)(F)F)C(F)(F)F: the speed of sound was 1138.7 ± 6 m/s.
The same measure, in the same setting: for `CCCO` [propan-1-ol] + CC[S+](CC)CC.O=S(=O)([N-]S(=O)(=O)C(F)(F)F)C(F)(F)F the value was 1138.7 ± 6 m/s; for `CCCO` [propan-1-ol] + O=S(=O)([N-]S(=O)(=O)C(F)(F)F)C(F)(F)F.On1cc[n+](O)c1, 1138.7 ± 6 m/s.

Still in this data set, the particulars now being: 318.15 K; 100 kPa; Liquid; Vibrating tube method; x2 = 0.
On to `CCCO` [propan-1-ol] + C=CCn1cc[n+](C)c1.O=S(=O)([N-]S(=O)(=O)C(F)(F)F)C(F)(F)F, for which the mass density came to 783 ± 2 kg/m3.
Still for that read-out and setting: for `CCCO` [propan-1-ol] + CC[S+](CC)CC.O=S(=O)([N-]S(=O)(=O)C(F)(F)F)C(F)(F)F the value was 783 ± 2 kg/m3; for `CCCO` [propan-1-ol] + O=S(=O)([N-]S(=O)(=O)C(F)(F)F)C(F)(F)F.On1cc[n+](O)c1, 783 ± 2 kg/m3.

The data set is the same for the next values; noted with them: 323.15 K; 100 kPa; Liquid; Capillary tube (Ostwald / Ubbelohde) method; x2 = 0.
As to `CCCO` [propan-1-ol] + C=CCn1cc[n+](C)c1.O=S(=O)([N-]S(=O)(=O)C(F)(F)F)C(F)(F)F, the viscosity was found to be 1.09 ± 0.087 mPa·s.
`CCCO` [propan-1-ol] + CC[S+](CC)CC.O=S(=O)([N-]S(=O)(=O)C(F)(F)F)C(F)(F)F: the viscosity is listed as 1.09 ± 0.087 mPa·s.
Same read-out and setting: for `CCCO` [propan-1-ol] + O=S(=O)([N-]S(=O)(=O)C(F)(F)F)C(F)(F)F.On1cc[n+](O)c1 the value was 1.09 ± 0.087 mPa·s.

The same data set, now with this note: 323.15 K; 100 kPa; Liquid; Frequency=3 MHz; Single path-length method; x2 = 0.
For the molecule `CCCO` [propan-1-ol] + C=CCn1cc[n+](C)c1.O=S(=O)([N-]S(=O)(=O)C(F)(F)F)C(F)(F)F, the speed of sound is 1121.9 ± 6 m/s.
Still for that read-out and setting: for `CCCO` [propan-1-ol] + CC[S+](CC)CC.O=S(=O)([N-]S(=O)(=O)C(F)(F)F)C(F)(F)F the value was 1121.9 ± 6 m/s; for `CCCO` [propan-1-ol] + O=S(=O)([N-]S(=O)(=O)C(F)(F)F)C(F)(F)F.On1cc[n+](O)c1, 1121.9 ± 6 m/s.

Still in this data set, the particulars now being: 323.15 K; 100 kPa; Liquid; Vibrating tube method; x2 = 0.
Turning to `CCCO` [propan-1-ol] + C=CCn1cc[n+](C)c1.O=S(=O)([N-]S(=O)(=O)C(F)(F)F)C(F)(F)F, the mass density is 779 ± 2 kg/m3.
The same measure, in the same setting: for `CCCO` [propan-1-ol] + CC[S+](CC)CC.O=S(=O)([N-]S(=O)(=O)C(F)(F)F)C(F)(F)F the value was 779 ± 2 kg/m3; for `CCCO` [propan-1-ol] + O=S(=O)([N-]S(=O)(=O)C(F)(F)F)C(F)(F)F.On1cc[n+](O)c1, 779 ± 2 kg/m3.
